Reference: patent US7323541B2, “Polypeptide DNA thereof and use of the same” (Takeda Pharmaceutical Company Limited, priority 2001, dated 2008)
Where no end group is shown, it is not given here.

How the values were obtained:
[1] = biological target: T1, TGR23-2 expressing CHO cells (Homo sapiens, UniProt Q6W5P4, N107I/Q344R); experiment: Enhancing activity of intracellular cAMP production; type: cell-based
T1 construct: the clones having the cDNA of TGR23-2, which is contained in pTB2174, were selected; expressed in transfected cells; host or cells: hamster CHO/dhfr- cells, vector pAKKO-111H (pAKKO-TGR23-2)
T1 sequence (Q6W5P4 1-371 N107I/Q344R): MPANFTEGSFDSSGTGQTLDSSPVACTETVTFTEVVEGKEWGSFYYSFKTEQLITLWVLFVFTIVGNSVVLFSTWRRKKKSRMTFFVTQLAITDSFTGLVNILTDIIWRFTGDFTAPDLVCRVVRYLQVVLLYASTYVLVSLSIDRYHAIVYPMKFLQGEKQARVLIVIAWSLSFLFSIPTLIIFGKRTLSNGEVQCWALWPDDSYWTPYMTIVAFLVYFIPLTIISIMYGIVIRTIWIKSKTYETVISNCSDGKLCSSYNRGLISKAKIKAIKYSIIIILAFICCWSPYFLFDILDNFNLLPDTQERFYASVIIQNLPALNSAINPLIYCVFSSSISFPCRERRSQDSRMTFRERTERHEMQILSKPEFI
Procedure: The CHO/TGR23-2 cells prepared in Example 1 and selected in Example 2 were plated on 24-well plate at 7×10^4 cells/well and cultured for 48 hours. The cells were washed with αMEM medium (pH7.5) containing 0.2 mM 3-isobutyl-methylxanthine, 0.05% BSA and 20 mM HEPES (hereafter, αMEM medium (pH7.5) containing 0.2 mM 3-isobutyl-methylxanthine, 0.05% BSA and 20 mM HEPES may be referred to as a reaction buffer). Subsequently, 0.5 ml of the reaction buffer was added, and the solution was incubated for 30 minutes in the incubator. The reaction buffer was removed and 0.25 ml of the reaction buffer was freshly added to the cells. Then, the cells were admixed with a sample and 0.25 ml of the reaction buffer containing 2 μM forskoline, and incubated at 37° C. for 30 minutes. Intracellular cAMP was extracted by removing the reaction solution and adding 0.5 ml of the solution for cell lysis attached with cAMP EIA Kit (Applied Biosystems). The cAMP level in the extract was quantified with the same kit. Based on this measured value, a calculation was made using the following formula, and the enhancing/inhibiting activity for cAMP production was represented by % of control. The activity of the sample-adding group was calculated using a control value configured in each plate. % of control=(X−C)/(T−C)×100
X: The cAMP level in the sample-adding group
T: The means of the cAMP level in 3 wells of positive control (no sample, with stimulus of forskoline)
C: The means of the cAMP level in 3 wells of negative control (no sample, without stimulus of forskoline)
In addition, for the same sample, in accordance with the method shown in Example 4, an arachidonic acid metabolite releasing activity was assayed.
Four microlitters each of the above-mentioned HPLC active fractions of rat whole brain extracts (Fraction numbers 18, 20 and 22 to 23) was added to 100 μl of 0.2 M ammonium acetate and incubated at 37° C. for 2 hours with 3 μg of Pronase. Subsequently, Pronase added, was inactivated by heating in boiling water for 10 minutes. To this solution, one ml of distilled water containing 0.05 mg of BSA and 0.05 mg of CHAPS was added. Further, it was lyophilized. For the lyophilized sample, enhancing activity for intracellular cAMP production was assayed by adding to TGR23-2 expressing CHO cells according to the method shown in Example 3.
Human TGR23-2 ligand (1-20) prepared by the method described in Example 17 was administered to TGR23-1 expressing CHO cells and TGR23-2 expressing CHO cells at a variety of concentrations according to the method described in Example 3, and the enhancing activity of intracellular cAMP production was determined.
Further, human TGR23-2 ligand (1-20) and rat TGR23-2 ligand (1-18) prepared by the method described in Example 19 were administered to TGR23-1 expressing CHO cells and TGR23-2 expressing CHO cells at a variety of concentrations, and the same assay as described above was carried out under the condition of no forskolin. A calculation was made using the following formula, and the enhancing activity for cAMP production was represented by % of control: % of control=X/C×100;
X: The cAMP level in the sample-adding group; and
C: Control (no sample, without stimulus of forskoline).

[2] = biological target: T2, rat TGR23-1 expressing CHO cells (Rattus norvegicus, UniProt P0C0L6, DEL160-160); experiment: Intracellular Ca ion concentration increasing activity using FLIPR; type: cell-based
T2 construct: The rat TGR23-1 expressing vector was constructed by digestion of plasmid pCR2.1-rTGR23-1 with Sal I and Spe I; expressed in transfected cells; host or cells: CHO dhfr- cells, pAKKO-rTGR23-1, clone No. 34
T2 sequence (P0C0L6 with tags, fused parts or gaps DEL160-160): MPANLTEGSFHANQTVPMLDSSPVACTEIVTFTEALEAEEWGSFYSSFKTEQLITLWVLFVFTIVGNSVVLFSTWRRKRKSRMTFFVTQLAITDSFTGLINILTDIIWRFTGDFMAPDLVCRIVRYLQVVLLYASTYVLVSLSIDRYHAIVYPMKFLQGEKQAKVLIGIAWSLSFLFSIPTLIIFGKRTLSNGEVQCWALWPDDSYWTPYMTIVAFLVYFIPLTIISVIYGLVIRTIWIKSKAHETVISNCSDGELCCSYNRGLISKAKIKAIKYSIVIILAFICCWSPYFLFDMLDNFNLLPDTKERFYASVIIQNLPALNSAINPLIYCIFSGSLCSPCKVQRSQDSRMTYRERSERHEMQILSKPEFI
Procedure: An enhancing activity of intracellular Ca^2+ release was assayed using FLIPR (Molecular Devices, Inc.). The CHO/TGR23-2 cells prepared in Example 1 and selected in Example 2 were plated on 96-well plate at 3×10^4 cells/well and cultured for 24 hours. A loading buffer was prepared by adding 1 vial of Fluo 3-AM to 10 ml of Hanks' solution (pH7.4) containing 2.5 mM Probenecid and 20 mM HEPES (hereafter, Hanks' solution (pH7.4) containing 2.5 mM Probenecid and 20 mM HEPES may be referred to as a washing buffer). The culture medium was discarded from the culture plate and 100 μl/well of the loading buffer were added to the cells. Then, the cells were incubated for 60 minutes in the incubator. After the loading buffer was removed from the culture plate and the cells were washed with the washing buffer, the plate was put in place of FLIPR. A sample was prepared by adding a sample buffer, which 2 mg/ml BSA and 1 mg/ml CHAPS were added to the washing buffer, to lyophilized product, stirring and treating by ultrasonication for 30 minutes, and transferred to 96-well sample plate. This sample plate was also put in place for assay. The enhancing activity of intracellular Ca^2+ release was measured as an increase of fluorescent intensity, which is raised by addition of the sample.
The rat TGR23-2 ligand (1-18) having various concentrations was administered in accordance with the method described in Example 5, to the CHO cells, in which rat TGR23-1 and rat TGR23-5 are expressed. Subsequently, the intracellular Ca ion concentration increasing activity was measured using FLIPR.

Q: What does the source list for “SFRNGVGTGMKKTSFQRAKS [human TGR23-2 ligand (1-20)]”?
A: enhancing activity of intracellular cAMP production ([1]; no forskolin): enhance the intracellular cAMP production; enhancing activity of intracellular cAMP production ([1]; with forskolin): clearly enhances cAMP production

Q: “SFRNGVGSGVKKTSFRRA [rat TGR23-2 ligand (1-18), Ser-Phe-Arg-Asn-Gly-Val-Gly-Ser-Gly-Val-Lys-Lys-Thr-Ser-Phe-Arg-Arg-Ala]” was tested. Which “enhancing activity of intracellular cAMP production” value ([1]; no forskolin) did it give?
A: enhance the intracellular cAMP production

Q: And the “enhancing activity of intracellular cAMP production” value ([1]; with forskolin)?
A: specifically exhibits an enhancing activity for cAMP production

Q: What about the “intracellular Ca ion concentration increasing activity” value ([2]; rat TGR23-1 expressing CHO cells) of the same sequence?
A: the intracellular Ca ion level increased depending on the concentration of this ligand

Q: What about the EC50 ([2]; rat TGR23-1 expressing cells, calculated from graph FIG. 27) of the same sequence?
A: 0.19 nM
